For 19 molecules, photoluminescence quantum yield results are on record in the Deep4Chem optical property database.

“And” between values parts separate entries of the source, which are not always exact repeats. Equal entries are not always repeated.

The nature of the data set: photoluminescence quantum yield (fraction); solvent given as SMILES.

For `C1=[N+](c2ccccc2)[B-](c2ccccc2)(c2ccccc2)Oc2c1ccc1c3c(ccc21)C=[N+](c1ccccc1)[B-](c1ccccc1)(c1ccccc1)O3`, the photoluminescence quantum yield came out at 0.7 (in Cc1ccccc1) and 0.76 (in ClCCl).

Where the note is “in C1CCOC1”, `COc1cc2c(cc1-c1ccc(C)cc1)Cc1c3c(c4c(c1-2)-c1cc(OC)c(-c2ccc(C)cc2)cc1C4)C(=O)N(CCC(C)C)C3=O` displayed a photoluminescence quantum yield of 0.67.

Take `Cc1ccc2c(c1)C(=O)c1ccncc1-2`: the photoluminescence quantum yield by setting is: (in CC#N) 0.019; (in CCCCCC) 0.0032; (in CCOC(C)=O) 0.036; (in Cc1ccccc1) 0.031; (in ClCCl) 0.022.

Molecule `CC1=CC(/C=C/c2ccccc2)=[N+]2C1=C(c1ccccc1)c1c(C)cc(/C=C/c3ccccc3)n1[B-]2(F)F` came in with a photoluminescence quantum yield (in Cc1ccccc1) of 0.59.

As to `F[B-]1(F)n2c(-c3cccs3)cc(-c3cccs3)c2N=C2C(c3cccs3)=CC(c3cccs3)=[N+]21`, the photoluminescence quantum yield (in C1CCOC1) is 0.12; the photoluminescence quantum yield (in CC#N) was 0.11; the photoluminescence quantum yield (in CS(C)=O) turned out to be 0.13; the photoluminescence quantum yield (in Cc1ccccc1) worked out at 0.1; the photoluminescence quantum yield (in ClCCl) was 0.12 and 0.11.

Regarding `N#Cc1ccc(C2=Cc3cc4ccccc4cc3P2(=O)c2ccccc2)cc1` (stereo not drawn), the photoluminescence quantum yield (in ClCCl) amounted to 0.54.

`c1ccc(-c2nnc(-c3cc(-n4c5ccccc5c5ccccc54)c(-n4c5ccccc5c5ccccc54)cc3-c3nnc(-c4ccccc4)o3)o2)cc1` gave a photoluminescence quantum yield (in Cc1ccccc1) of 0.383.

Turning to `O=C(Nc1ccccc1[N+](=O)[O-])c1ccc2oc(-c3cc4ccccc4oc3=O)nc2c1`, for the setting “in ClCCl”, the photoluminescence quantum yield came to 0.12.

On to `C1=C(c2ccccc2)C2=Nc3c(-c4ccccc4)cc4n3[B-]3(Oc5ccccc5C1=[N+]23)Oc1ccccc1-4` (stereo not drawn), for which the photoluminescence quantum yield (in Cc1ccccc1) was found to be 0.51.

For the setting “in C1COCCO1”, `COC(=O)c1ccc(/C=C2\C=C(c3ccccc3)OC2=O)cc1` had a photoluminescence quantum yield of 0.007.

Consider `CC(C)c1cccc(C(C)C)c1-n1c(=O)c2ccc3c4ccc5c(=O)n(-c6c(C(C)C)cccc6C(C)C)c(=O)c6cc7c(-c8ccccn8)nc8cc(c1=O)c2c3c8c7c4c56`, for which, where the note is “in ClC(Cl)Cl”, the photoluminescence quantum yield worked out at 0.36.

The molecule `CCCC1=Cc2nc1ccc1[nH]c(cc1CCC)c1nc(c(O)cc3[nH]c2cc3CCC)C(CCC)=C1` showed a photoluminescence quantum yield (in Cc1ccccc1) of 0.15.

Consider `COc1cccc(OC)c1-c1c2ccc(=[N+]3CCNCC3)cc-2oc2cc(N3CCNCC3)ccc12`, for which the photoluminescence quantum yield reads like this: (in CCO) 0.008; (in O) 0.14.

Take `N[C@@H](Cn1nnc2cc(-c3ccc(-c4ccsc4)cc3)ccc21)C(=O)O`: for the setting “in CO”, the photoluminescence quantum yield was determined as 0.03.

For the molecule `Cc1cnc(NC(=O)C2=C(O)c3ccccc3S(=O)(=O)N2C)s1`, the photoluminescence quantum yield was found to be 0.0133 (in C1COCCO1); 0.0147 (in CC#N); 0.0231 (in CCCCO); 0.0164 (in CCCO); 0.0106 (in CCO); 0.0113 (in CCOC(C)=O). Further, the photoluminescence quantum yield (in CO) stood at 0.00754.

`CCCCCCCCn1c2cc(/C=C/c3ccc(N(c4ccccc4)c4ccccc4)cc3)ccc2c2cc3c(cc21)c1ccc(/C=C/c2ccc(N(c4ccccc4)c4ccccc4)cc2)cc1n3CCCCCCCC` gave a photoluminescence quantum yield (in Cc1ccccc1) of 0.62.

In the case of `C(=C\c1cc(/C=C/c2ccc(-n3c4ccccc4c4ccccc43)cc2)cc(/C=C/c2ccc(-n3c4ccccc4c4ccccc43)cc2)c1)/c1ccc(-n2c3ccccc3c3ccccc32)cc1`, the photoluminescence quantum yield runs as follows: (in C1CCOC1) 0.8; (in CC#N) 0.83; (in Cc1ccccc1) 0.59; (in ClCCl) 0.75.

Consider `c1ccc2c3c(ccc2c1)-c1c2ccccc2cc2cccc-3c12`, for which the photoluminescence quantum yield (in CCCCCCC) was determined as 0.00088.

As for `Cc1cc2nc3[nH]c(=O)[nH]c(=O)c3nc2cc1C`, the photoluminescence quantum yield (in CC#N) came to 0.028.
